Measurements as given in PubChem BioAssay AID248 (DTP/NCI, 2004).
Several values for one entry are separate records, joined by “and”; a condition that tells them apart may be missing. Identical values can stand only once. Toxic doses and inconclusive results are not listed. Cut-off read from the data, not from the text of the source: active = T/C of 150% or more; inactive = T/C below 125%.

Test system: L1210 leukemia ip in BDF1 mice, survival T/C
Assay: NCI In Vivo Anticancer Drug Screen. Data for tumor model L1210 Leukemia (intraperitoneal) in B6D2F1 (BDF1) mice
Details: endpoint: mean survival time, higher = longer survival
Outline: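 Tumor was transplanted into mice, which were then dosed with test compound or vehicle alone. Survival was recorded for each group, and the treated figure was expressed relative to the control figure.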

[1] = dose: 100.0 mg/kg/injection, schedule: Q04DX003 (ip), vehicle: Klucel (hydroxypropylcellulose) (HPC)
[2] = dose: 50.0 mg/kg/injection, schedule: Q01DX001 (ip), vehicle: carboxymethylcellulose (CMC)
[3] = dose: 100.0 mg/kg/injection, schedule: Q01DX001 (ip), vehicle: carboxymethylcellulose (CMC)
[4] = dose: 200.0 mg/kg/injection, schedule: Q01DX001 (ip), vehicle: carboxymethylcellulose (CMC)
[5] = dose: 400.0 mg/kg/injection, schedule: Q01DX001 (ip), vehicle: carboxymethylcellulose (CMC)
[6] = dose: 12.5 mg/kg/injection, schedule: Q04DX003 (ip), vehicle: saline with Tween-80
[7] = dose: 25.0 mg/kg/injection, schedule: Q04DX003 (ip), vehicle: saline with Tween-80
[8] = dose: 50.0 mg/kg/injection, schedule: Q04DX003 (ip), vehicle: saline with Tween-80
[9] = dose: 100.0 mg/kg/injection, schedule: Q04DX003 (ip), vehicle: saline with Tween-80
[10] = dose: 200.0 mg/kg/injection, schedule: Q04DX003 (ip), vehicle: saline with Tween-80
[11] = dose: 100.0 mg/kg/injection, schedule: Q01DX009 (ip), vehicle: saline with Tween-80
[12] = dose: 200.0 mg/kg/injection, schedule: Q04DX003 (ip), vehicle: Klucel (hydroxypropylcellulose) (HPC)
[13] = dose: 400.0 mg/kg/injection, schedule: Q04DX003 (ip), vehicle: Klucel (hydroxypropylcellulose) (HPC)
[14] = dose: 100.0 mg/kg/injection, schedule: Q04DX002 (ip), vehicle: Klucel (hydroxypropylcellulose) (HPC)
[15] = dose: 200.0 mg/kg/injection, schedule: Q04DX002 (ip), vehicle: Klucel (hydroxypropylcellulose) (HPC)
[16] = dose: 400.0 mg/kg/injection, schedule: Q04DX002 (ip), vehicle: Klucel (hydroxypropylcellulose) (HPC)

Measured: T/C

C[C@@H]1CC[C@@]2(OC1)O[C@H]1C[C@H]3[C@@H]4CC=C5C(C)(C)C(=O)C(O)=C[C@]5(C)[C@H]4CC[C@]3(C)[C@H]1[C@@H]2C
inactive: dose: 100.0 mg/kg/injection, schedule: Q04DX003 (sc), vehicle: steriod suspending solution 98 % of control | dose: 200.0 mg/kg/injection, schedule: Q04DX003 (sc), vehicle: steriod suspending solution 110 % of control | dose: 400.0 mg/kg/injection, schedule: Q04DX003 (sc), vehicle: steriod suspending solution 98 % of control

CCCCCCCCCCCCCCCCCC(O)CCCCCCCCCCCCCCCCC
inactive: dose: 100.0 mg/kg/injection, schedule: Q04DX003 (ip), vehicle: acetone 94 % of control | dose: 200.0 mg/kg/injection, schedule: Q04DX003 (ip), vehicle: acetone 96 % of control | dose: 400.0 mg/kg/injection, schedule: Q04DX003 (ip), vehicle: acetone 86 % of control

CC1CCCCN1P(=[Se])(c1ccccc1)N1CCCCC1C (centres undefined)
inactive: dose: 25.0 mg/kg/injection, schedule: Q04DX003 (ip), vehicle: Klucel (hydroxypropylcellulose) (HPC) 97 % of control | dose: 50.0 mg/kg/injection, schedule: Q04DX003 (ip), vehicle: Klucel (hydroxypropylcellulose) (HPC) 103 % of control | [1] 100 % of control and 90 % of control

Fc1cc(N(CCCl)CCCl)ccc1C1N(Cc2ccc(N(CCCl)CCCl)cc2Cl)CCCN1Cc1ccc(N(CCCl)CCCl)cc1Cl
inactive: [2] 96 % of control | [3] 105 % of control | [4] 96 % of control | [5] 100 % of control

O=C(Sc1ccccc1)c1ccccc1
inactive: [2] 105 % of control | [3] 105 % of control | [4] 108 % of control | [5] 100 % of control

[N-]=Cc1c(O)cccc1[N+](=O)[O-].[N-]=Cc1cc([N+](=O)[O-])ccc1O.[Ni+2]
inactive: [6] 95 % of control | [7] 98 % of control | [8] 95 % of control | [9] 92 % of control | [10] 86 % of control

Cc1ccccc1N(C=O)c1ccccc1C
inactive: dose: 50.0 mg/kg/injection, schedule: Q01DX Z (ip), vehicle: methylcellulose (MC) 111 % of control | dose: 80.0 mg/kg/injection, schedule: Q01DX Z (ip), vehicle: methylcellulose (MC) 115 % of control | dose: 125.0 mg/kg/injection, schedule: Q01DX Z (ip), vehicle: methylcellulose (MC) 98 % of control and 114 % of control | dose: 180.0 mg/kg/injection, schedule: Q01DX Z (ip), vehicle: methylcellulose (MC) 115 % of control | dose: 240.0 mg/kg/injection, schedule: Q01DX Z (ip), vehicle: methylcellulose (MC) 97 % of control | dose: 250.0 mg/kg/injection, schedule: Q01DX Z (ip), vehicle: methylcellulose (MC) 93 % of control | dose: 300.0 mg/kg/injection, schedule: Q01DX Z (ip), vehicle: methylcellulose (MC) 109 % of control | dose: 360.0 mg/kg/injection, schedule: Q01DX Z (ip), vehicle: methylcellulose (MC) 100 % of control | dose: 500.0 mg/kg/injection, schedule: Q01DX Z (ip), vehicle: methylcellulose (MC) 106 % of control | dose: 1000.0 mg/kg/injection, schedule: Q01DX Z (ip), vehicle: methylcellulose (MC) 98 % of control

Brc1ccc(N(Cc2ccccc2)Cc2ccccc2)cc1
inactive: [11] 100 % of control | dose: 200.0 mg/kg/injection, schedule: Q01DX009 (ip), vehicle: saline with Tween-80 86 % of control | dose: 400.0 mg/kg/injection, schedule: Q01DX009 (ip), vehicle: saline with Tween-80 89 % of control

CC(C)C(C#N)(CCCCN1CCCCC1)c1cccc2ccccc12 (centres undefined)
inactive: [9] 97 % of control | [10] 93 % of control

CON(C)CC(Cl)c1ccccc1 (centres undefined)
inactive: dose: 6.25 mg/kg/injection, schedule: Q01DX009 (ip), vehicle: saline 100 % of control | dose: 6.25 mg/kg/injection, schedule: Q04DX003 (ip), vehicle: saline with Tween-80 98 % of control | dose: 12.5 mg/kg/injection, schedule: Q01DX009 (ip), vehicle: saline 100 % of control | [6] 96 % of control | dose: 25.0 mg/kg/injection, schedule: Q01DX009 (ip), vehicle: saline 92 % of control | [7] 104 % of control | dose: 50.0 mg/kg/injection, schedule: Q01DX009 (ip), vehicle: saline 92 % of control | [8] 96 % of control and 98 % of control

CCS(=O)(=O)c1ccc(NC(=O)Oc2cc(C)ccc2C(C)C)cc1
inactive: [3] 91 % of control | [4] 96 % of control | [5] 94 % of control

CCOC(=O)CCc1c(C(=O)OCC)[nH]c(C)c1C(=O)OCc1ccccc1
inactive: [1] 100 % of control | [12] 101 % of control | [13] 108 % of control

O=C1C=CC(=O)N1c1ccc(F)cc1
inactive: [7] 108 % of control

C=CCOC(=O)C(=O)OCC=C
inactive: [11] 95 % of control

COc1ccc(C2c3cc(OC)c(OC)cc3CC3C(=O)OCC32)cc1OC (centres undefined)
inactive: [1] 98 % of control | [12] 93 % of control | [13] 93 % of control

CCc1ccccc1NC(=O)C(Cl)Cl
inactive: [14] 100 % of control | [15] 103 % of control | [16] 100 % of control

CCN(CC)c1ccc(/C=N/Nc2nnc(N/N=C/c3ccc(N(CC)CC)cc3)c3ccccc23)cc1
inactive: dose: 50.0 mg/kg/injection, schedule: Q01DX001 (ip), vehicle: saline 94 % of control | dose: 100.0 mg/kg/injection, schedule: Q01DX001 (ip), vehicle: saline 92 % of control | dose: 200.0 mg/kg/injection, schedule: Q01DX001 (ip), vehicle: saline 105 % of control

O=C(Nc1ccccc1C(F)(F)F)c1ccc(F)cc1
inactive: dose: 100.0 mg/kg/injection, schedule: Q01DX001 (ip), vehicle: Klucel (hydroxypropylcellulose) (HPC) 99 % of control | dose: 100.0 mg/kg/injection, schedule: Q01DX009 (ip), vehicle: Klucel (hydroxypropylcellulose) (HPC) 95 % of control and 103 % of control | [14] 98 % of control and 121 % of control | [1] 105 % of control | dose: 200.0 mg/kg/injection, schedule: Q01DX001 (ip), vehicle: Klucel (hydroxypropylcellulose) (HPC) 95 % of control | dose: 200.0 mg/kg/injection, schedule: Q01DX009 (ip), vehicle: Klucel (hydroxypropylcellulose) (HPC) 94 % of control and 95 % of control | [15] 100 % of control and 101 % of control | [12] 100 % of control | dose: 400.0 mg/kg/injection, schedule: Q01DX001 (ip), vehicle: Klucel (hydroxypropylcellulose) (HPC) 104 % of control | dose: 400.0 mg/kg/injection, schedule: Q01DX009 (ip), vehicle: Klucel (hydroxypropylcellulose) (HPC) 95 % of control and 97 % of control | [16] 96 % of control and 100 % of control | [13] 113 % of control

CN(C)CCN=Cc1[nH]c(=S)[nH]c(=O)c1CCc1ccccc1
inactive: dose: 100.0 mg/kg/injection, schedule: Q01DX001 (ip), vehicle: saline with Tween-80 93 % of control | dose: 200.0 mg/kg/injection, schedule: Q01DX001 (ip), vehicle: saline with Tween-80 97 % of control | dose: 400.0 mg/kg/injection, schedule: Q01DX001 (ip), vehicle: saline with Tween-80 95 % of control

COc1cc(NC(=O)Nc2c(C)cc(I)cc2C(=O)O)c(I)cc1I
inactive: dose: 75.0 mg/kg/injection, schedule: Q01DX001 (ip), vehicle: other 87 % of control | dose: 150.0 mg/kg/injection, schedule: Q01DX001 (ip), vehicle: other 92 % of control | dose: 300.0 mg/kg/injection, schedule: Q01DX001 (ip), vehicle: other 91 % of control

CCCCS(=O)C1(CCC)OC1(c1ccccc1)c1ccccc1 (centres undefined)
inactive: dose: 100.0 mg/kg/injection, schedule: Q03DX002 (ip), vehicle: other 121 % of control | dose: 200.0 mg/kg/injection, schedule: Q03DX002 (ip), vehicle: other 102 % of control | dose: 400.0 mg/kg/injection, schedule: Q03DX002 (ip), vehicle: other 96 % of control

COc1cc(C2=N/C(=C\C=C\c3ccccc3)C(=O)O2)cc(OC)c1OC
inactive: dose: 100.0 mg/kg/injection, schedule: Q04DX002 (ip), vehicle: saline with Tween-80 95 % of control | dose: 200.0 mg/kg/injection, schedule: Q04DX002 (ip), vehicle: saline with Tween-80 95 % of control | dose: 400.0 mg/kg/injection, schedule: Q04DX002 (ip), vehicle: saline with Tween-80 95 % of control

Cc1ccc(S(=O)(=O)NCCC(Cl)(Cl)Cl)cc1
inactive: [1] 104 % of control | [12] 101 % of control | [13] 98 % of control
